Series [1] deals with platelets in peripheral blood. In words: in vivo platelet toxicity test, multiple intraperitoneal injections. Details: species or system C57 mice. On the procedure:
B. The schematic diagram of the multiple dosing and the subsequent blood routine examinations in mice. The drug was administered on 3 consecutive days per week, followed by a 4-day interval, for 3 weeks continuous administration. The drug was administered by intraperitoneal injection in the afternoon on days 0, 1, 2, 7, 8, 9, 14, 15, and 16, and the blood was collected and tested in the morning on days 1, 3, 5, 8, 10, 12, 15, 17, and 19, respectively.
C. Results of the platelet counts in peripheral blood on days 1, 3, 5, 8, 10, 12, 15, 17, and 19 after multiple intraperitoneal injections of different doses of the given drug. Each dot in the panel represents the count of platelets detected in 1 mouse at that time point (n=4 mice); mpk represents the milligram dose per kilogram of the body weight, A13 represents the parent compound A1331852 administration group, and A13bGa1 represents the prodrug obtained after the β-gal modification of A13. The dashed line in the panel indicates the mean value of platelet counts in mice in the single vehicle administration control group.
In Vivo Platelet Toxicity Test
A single administration of A13 or A13bG was performed. Female 5-6 week old C57 mice were treated with a single intraperitoneal injection. A13 and A13bG were administered in three different dose groups of 2, 5, and 20 mg/kg. Approximately 50 μl of blood was collected from each mouse at different time points into the EDTA tubes (RAM Scientific) by means of inner canthal blood extraction, and analyzed using a haematology analyzer for a blood routine examination and a platelet counting. Multiple administrations of A13 or A13bG were performed. Female 5-6 week old C57 mice were treated with multiple intraperitoneal injections. A13 and A13bG were administered in three different dose groups of 2, 5 and 20 mg/kg, three consecutive days per week, followed by a 4-day withdrawal for 3 weeks. The time points of administration were in the afternoon of days 0, 1, 2, 7, 8, 9, 14, 15, and 16, and the time points of blood collection and testing were in the morning of days 1, 3, 5, 8, 10, 12, 15, 17, and 19, respectively.
For a blood routine examination, 50 μl of fresh blood was collected from each mouse and immediately mixed with EDTA. Blood samples were analyzed by Celltac Alpha MEK-6400 series haematology analyzer (Nihon Kohden, MEK-6400). Data were expressed as the number of different blood cells or platelets per μl of blood. For the serum biochemical analysis, the blood samples were collected, coagulated for 2 hours at room temperature or overnight at 4 °C, and then centrifuged (1000 g, 10 minutes) to obtain serum. A 200 μl of serum was aliquoted and analyzed for alanine aminotransferase (ALT), aspartate aminotransferase (AST), uric acid (UA), and creatinine (CREA) by a chemistry analyzer (Mindray, BS-350E).

For series [2], the system named is mouse model of Bleomycin-induced pulmonary fibrosis. Nature of the series: HE pathological changes in the lungs, Bleomycin-induced pulmonary fibrosis. The format is in vivo, C57 mice. The note with it: A13 2 mg/kg, A13bGa1 5 mg/kg; for inflammation and consolidation of the mouse lungs (HE pathology): i.p. four weeks, FIG. 5D and Table 1. On the procedure: (§1) A. Modelling of a mouse model of Bleomycin-induced pulmonary fibrosis, and the schematic diagram of treatment. Mice were modelled with Bleomycin administered via tracheal instillation on day 0, and the treatment with intraperitoneal injection of the drug was started on day 4. The drug was administered for 3 consecutive days per week, followed by a 4-day withdrawal, for 4 weeks.
D. Representative results of HE and Masson staining of the pathological sections of lungs taken from different groups of mice after execution. Normal represents the saline tracheal instillation modelling control group; Vehicle represents the vehicle administration control group; A13bGa1 represents the prodrug treatment group; A13 represents the A1331852 treatment group. Scale bar: 500 μm.
All drugs were mixed in 85% physiological saline, 5% DMSO (Sigma, D8418) and 10% Solutol HS 15 (Sigma, 42966), and administered to mice by intraperitoneal (i.p.) injection. To treat the bleomycin-injured young mice, A13 (2 mg/kg), A13bGa1 (5 mg/kg), or an empty vehicle control was administered three consecutive days per week for four weeks. A1331852 (abbreviated as A13) was purchased from MCE.
Bleomycin-Induced Pulmonary Fibrosis
Bleomycin was purchased from Selleck. As previously reported (Bivas-Benita et al., Eur J Pharm Biopharm 61, 214-218 (2005)), a transtracheal injection of bleomycin (2 mg/kg) was performed to the young male C57 mice (8-10 weeks old) to induce lung fibrosis. Drug treatment was initiated four days after modelling, and the drug was administered three consecutive days per week for four consecutive weeks, after which the mice were executed for material collection.
Histopathological Examination
All animals (including those found dead, dying, and euthanised) were autopsied, and the lung tissues were preserved. The lungs were separated, the fat and other tissues were removed, the surface fluid was absorbed using a filter paper, and the whole lungs were weighed (those found dead, dying, and euthanised) for calculation of the lung weight index. The right lung and bronchiole were fixed in 10% neutral buffered formalin solution, embedded in paraffin, sectioned, prepared into slices, and stained with HE for a histopathological and morphological observation of the lung. The degree of the lesions such as the inflammatory cell infiltration in the lung tissue were graded according to a 4-grade classification (slight, mild, moderate, severe) using a standard terminology for diagnosis and classification. The left lung tissue was clipped and stored temporarily below −60′C.

For series [3] the test system is unchanged. Nature of the series: lung specific gravity index in Bleomycin-induced pulmonary fibrosis. The format is in vivo, C57 mice. The note with it: i.p. four weeks; A13 2 mg/kg, A13bGa1 5 mg/kg; FIG. 5C. Here is the method:
as §1
C. Comparison of lung specific gravity index calculated for different groups of mice. After completion of drug administration according to the dosing protocol, the mice were executed and the lungs of the mice were taken and weighed to calculate the lung specific gravity index, lung index=the lung weight (g)/the body weight (g)×100%. A13 represents the A1331852 treatment group at a dose of 2 mg/kg; A13bGa1 represents prodrug treatment group at a dose of 5 mg/kg; VEH represents the vehicle treatment control group; and NC represents the saline tracheal instillation modelling control group. Each dot in the panel represents the result of the lung specific gravity index of 1 mouse, n=5 in the saline modelling control group, and n=6 in other groups. The statistical analysis was performed using unpaired T-test, ns indicates no statistical difference; with *p<0.05; and **p<0.01. […]

Structures are written as SMILES.

For the compound `Cc1c(-c2ccc(N3CCc4cccc(C(=O)Nc5nc6ccccc6s5)c4C3)nc2C(=O)O)cnn1CC12CC3CC(CC(C3)C1)C2` [Compound A13, 3-[1-(adamantan-1-ylmethyl)-5-methylpyrazol-4-yl]-6-{8-[(1,3-benzothiazol-2-yl)carbamoyl]-3,4-dihydro-1H-isoquinolin-2-yl}pyridine-2-carboxylic acid], the “toxic effects on the platelets at the lowest dose” value in series [1] (multiple rounds i.p., 2 mg/kg, 3 consecutive days per week, 3 weeks, FIG. 4C) is given as “very serious toxic effects on the platelets”. For the same compound, in series [1] (multiple rounds i.p., 2, 5, 20 mg/kg, FIG. 4C), the “destructive effects on the platelets at the three doses tested” value was “strong destructive effects on the platelets”. Besides, the “number of the peripheral blood platelets during monitoring” value in series [1] (multiple rounds i.p., FIG. 4C) was “dramatic fluctuations in the number of the peripheral blood platelets”. Moreover, in series [2], the “inflammation and consolidation of the mouse lungs (HE pathology)” value is “no improvement”. For the same compound, the “lung specific gravity index (lung weight/body weight×100%)” value in series [3] was “no improvement in the lung index”.
For the compound `Cc1c(-c2ccc(N3CCc4cccc(C(=O)Nc5nc6ccccc6s5)c4C3)nc2C(=O)OCc2ccc(O[C@@H]3O[C@H](CO)[C@H](O)[C@H](O)[C@H]3O)c([N+](=O)[O-])c2)cnn1CC12CC3CC(CC(C3)C1)C2` [Compound A13bGa1], the “changes in the number of the peripheral blood platelets” value in series [1] (multi-round i.p. regimen, FIG. 4C) is “relatively stable”. Moreover, in series [1] (multi-round i.p. regimen, in contrast to A13, FIG. 4C), the “toxic side effects on the platelets” value is listed as “significantly reduced”. Moreover, the “inflammation and consolidation of the mouse lungs (HE pathology)” value in series [2] is “significant improvement”. Besides, in series [2] (of 6 animals), the “Bleeding, alveolar/interstitial: mild (++)” value was 0 number of animals; the “Bleeding, alveolar/interstitial: moderate (+++)” value was 0 number of animals; the “Bleeding, alveolar/interstitial: negative (−)” value was 3 number of animals; the “Bleeding, alveolar/interstitial: slight (+)” value is listed as 3 number of animals. Moreover, in series [2] (of 6 animals), the “Exudative oedema, alveolar: mild (++)” value was 2 number of animals; the “Exudative oedema, alveolar: moderate (+++)” value is reported as 1 number of animals; the “Exudative oedema, alveolar: negative (−)” value was 2 number of animals; the “Exudative oedema, alveolar: severe (++++)” value is on record as 0 number of animals. Besides, in series [2] (of 6 animals), the “Exudative oedema, alveolar: slight (+)” value is 1 number of animals; the “The infiltration of the inflammatory cells: mild (++)” value is reported as 0 number of animals; the “The infiltration of the inflammatory cells: moderate (+++)” value is listed as 1 number of animals; the “The infiltration of the inflammatory cells: negative (−)” value was 4 number of animals. In addition, in series [2] (of 6 animals), the “The infiltration of the inflammatory cells: slight (+)” value is 1 number of animals; the “Thickening and consolidation of the pulmonary septum: mild (++)” value is recorded as 5 number of animals; the “Thickening and consolidation of the pulmonary septum: moderate (+++)” value is given as 0 number of animals; the “Thickening and consolidation of the pulmonary septum: negative (−)” value was 1 number of animals. Also, in series [2] (of 6 animals), the “Thickening and consolidation of the pulmonary septum: severe (++++)” value is listed as 0 number of animals; the “Thickening and consolidation of the pulmonary septum: slight (+)” value is reported as 0 number of animals. Moreover, the “lung specific gravity index (lung weight/body weight×100%)” value in series [3] is recorded as “recovered to the normal level”.

The values are drawn from US20260345582A1, “PRODRUG FOR ANTI-AGING RELATED DISEASES AND USE METHOD THEREOF” (Beijing SunCell Bio-Medical Co., Ltd., priority 2022, published 2026).
